According to patent US20240393292A1, “ALLERGY ANTIGEN AND EPITOPE THEREOF” (HOYU CO., LTD., priority 2019, published 2024):
One block for each substance: values may come before it.

System: IgE antibodies from patients
Test: Wheat epitope mapping (2): overlapping 10-amino-acid peptide fragments shifted by one amino acid
Format: binding, human
Details: partial sequence
Method in brief: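 Residual binding was banded as <30% none, 30–<50% poor, 50–<70% somewhat poor and ≥70% retained, relative to the parent overlapping sequence set to 100%. Values were chemiluminescent IgE signals from patient sera after subtracting secondary-antibody-only controls. The peptides were spot-synthesised 10-mers shifted by one amino acid.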

[1] = serum of patient P50 (child, general immediate type allergy to wheat)
[2] = serum of patient G7 (adult, general immediate type allergy to wheat)

Substance: 2642 (KEAAEM; REGION 1..6: note = epitope) [compound 2642]
Epitope sequence binding to IgE antibody, rank of the sequence (serum of patient P16 (WDEIA)): Key

Substance: 2647 (KEAAEM; REGION 1..6: note = epitope) [compound 2647]
Epitope sequence binding to IgE antibody, rank of the sequence (serum of patient P26 (WDEIA)): Key

Substance: 2648 (NKRSFK; REGION 1..6: note = epitope) [compound 2648]
Epitope sequence binding to IgE antibody, rank of the sequence (serum of patient P26 (WDEIA)): Key

Substance: 2649 (KEAAE; REGION 1..5: note = epitope) [compound 2649]
Epitope sequence binding to IgE antibody, rank of the sequence (serum of patient P29 (WDEIA)): Preferably

Substance: 2653 (EAAE; REGION 1..4: note = epitope) [compound 2653]
Epitope sequence binding to IgE antibody, rank of the sequence (serum of patient P31 (WDEIA)): Key

Substance: 2658 (FEKEAAE; REGION 1..7: note = epitope) [compound 2658]
Epitope sequence binding to IgE antibody, rank of the sequence (serum of patient P35 (WDEIA)): Key

Substance: 2659 (EAAEMNKRSF; REGION 1..10: note = epitope) [compound 2659]
Epitope sequence binding to IgE antibody, rank of the sequence (serum of patient P35 (WDEIA)): Preferably

Substance: 2671 (AEMNKRSFK; REGION 1..9: note = epitope) [compound 2671]
Epitope sequence binding to IgE antibody, rank of the sequence (serum of patient G5 (adult, general immediate type allergy to wheat)): Key

Substance: 2672 (RFEKEAAEMN; REGION 1..10: note = epitope) [compound 2672]
Epitope sequence binding to IgE antibody, rank of the sequence [2]: Key

Substance: 2673 (EAAEMNKR; REGION 1..8: note = epitope) [compound 2673]
Epitope sequence binding to IgE antibody, rank of the sequence [2]: Key

Substance: 2677 (YKGPTL; REGION 1..6: note = epitope) [compound 2677]
Epitope sequence binding to IgE antibody, rank of the sequence (serum of patient P12 (WDEIA)): Key

Substance: 2679 (YKGPTL; REGION 1..6: note = epitope) [compound 2679]
Epitope sequence binding to IgE antibody, rank of the sequence (serum of patient P14 (WDEIA)): Key

Substance: 2683 (KGPTL; REGION 1..5: note = epitope) [compound 2683]
Epitope sequence binding to IgE antibody, rank of the sequence (serum of patient P22 (WDEIA)): Key

Substance: 2692 (YKGPTL; REGION 1..6: note = epitope) [compound 2692]
Epitope sequence binding to IgE antibody, rank of the sequence (serum of patient P33 (WDEIA)): Key

Substance: 2693 (YKGPTL; REGION 1..6: note = epitope) [compound 2693]
Epitope sequence binding to IgE antibody, rank of the sequence (serum of patient P34 (WDEIA)): Key

Substance: 2695 (YKGPTL; REGION 1..6: note = epitope) [compound 2695]
Epitope sequence binding to IgE antibody, rank of the sequence (serum of patient P36 (WDEIA)): Key

Substance: 2696 (YKGPTL; REGION 1..6: note = epitope) [compound 2696]
Epitope sequence binding to IgE antibody, rank of the sequence (serum of patient G3 (adult, general immediate type allergy to wheat)): Key

Substance: 2697 (YKGPTL; REGION 1..6: note = epitope) [compound 2697]
Epitope sequence binding to IgE antibody, rank of the sequence (serum of patient G6 (adult, general immediate type allergy to wheat)): Key

Substance: 2703 (YKIGGIGTV; REGION 1..9: note = epitope) [compound 2703]
Epitope sequence binding to IgE antibody, rank of the sequence (serum of patient P3 (WDEIA)): Preferably

Substance: 2706 (YKIGGIGTV; REGION 1..9: note = epitope) [compound 2706]
Epitope sequence binding to IgE antibody, rank of the sequence (serum of patient P8 (WDEIA)): Preferably

Substance: 2707 (YKIGGIGT; REGION 1..8: note = epitope) [compound 2707]
Epitope sequence binding to IgE antibody, rank of the sequence (serum of patient P8 (WDEIA)): Key

Substance: 2709 (YKIGGIGT; REGION 1..8: note = epitope) [compound 2709]
Epitope sequence binding to IgE antibody, rank of the sequence (serum of patient P16 (WDEIA)): Preferably

Substance: 2713 (KIGG; REGION 1..4: note = epitope) [compound 2713]
Epitope sequence binding to IgE antibody, rank of the sequence (serum of patient P17 (WDEIA)): Key

Substance: 2716 (YKIGGI; REGION 1..6: note = epitope) [compound 2716]
Epitope sequence binding to IgE antibody, rank of the sequence (serum of patient P18 (WDEIA)): Preferably

Substance: 2717 (YKIGG; REGION 1..5: note = epitope) [compound 2717]
Epitope sequence binding to IgE antibody, rank of the sequence (serum of patient P18 (WDEIA)): Key

Substance: 2719 (YKIGG; REGION 1..5: note = epitope) [compound 2719]
Epitope sequence binding to IgE antibody, rank of the sequence (serum of patient P25 (WDEIA)): Key

Substance: 2720 (IGGIGTVPVG; REGION 1..10: note = epitope) [compound 2720]
Epitope sequence binding to IgE antibody, rank of the sequence (serum of patient P25 (WDEIA)): Preferably

Substance: 2722 (YKIGG; REGION 1..5: note = epitope) [compound 2722]
Epitope sequence binding to IgE antibody, rank of the sequence (serum of patient P26 (WDEIA)): Preferably

Substance: 2723 (KIGG; REGION 1..4: note = epitope) [compound 2723]
Epitope sequence binding to IgE antibody, rank of the sequence (serum of patient P26 (WDEIA)): Key

Substance: 2725 (YKIGG; REGION 1..5: note = epitope) [compound 2725]
Epitope sequence binding to IgE antibody, rank of the sequence (serum of patient P27 (WDEIA)): Preferably

Results, then the substance that gave them:

Epitope sequence binding to IgE antibody, rank of the sequence (serum of patient P20 (WDEIA)): Preferably
Substance: 2643 (KEAAEMN; REGION 1..7: note = epitope) [compound 2643]

Epitope sequence binding to IgE antibody, rank of the sequence (serum of patient P22 (WDEIA)): Key
Substance: 2646 (KEAAEMN; REGION 1..7: note = epitope) [compound 2646]

Epitope sequence binding to IgE antibody, rank of the sequence (serum of patient P31 (WDEIA)): Preferably
Substance: 2652 (KEAAEM; REGION 1..6: note = epitope) [compound 2652]

Epitope sequence binding to IgE antibody, rank of the sequence (serum of patient P32 (WDEIA)): Preferably
Substance: 2655 (EAAEMNK; REGION 1..7: note = epitope) [compound 2655]

Epitope sequence binding to IgE antibody, rank of the sequence (serum of patient P35 (WDEIA)): Key
Substance: 2660 (EMNKRSF; REGION 1..7: note = epitope) [compound 2660]

Epitope sequence binding to IgE antibody, rank of the sequence [1]: Preferably
Substance: 2663 (FEKEAA; REGION 1..6: note = epitope) [compound 2663]

Epitope sequence binding to IgE antibody, rank of the sequence [1]: Key
Substance: 2664 (FEKEA; REGION 1..5: note = epitope) [compound 2664]

Epitope sequence binding to IgE antibody, rank of the sequence (serum of patient P57 (child, general immediate type allergy to wheat)): Preferably
Substance: 2668 (KEAAE; REGION 1..5: note = epitope) [compound 2668]

Epitope sequence binding to IgE antibody, rank of the sequence (serum of patient P8 (WDEIA)): Key
Substance: 2676 (YKGPTL; REGION 1..6: note = epitope) [compound 2676]

Epitope sequence binding to IgE antibody, rank of the sequence (serum of patient P17 (WDEIA)): Key
Substance: 2680 (YKGPTL; REGION 1..6: note = epitope) [compound 2680]

Epitope sequence binding to IgE antibody, rank of the sequence (serum of patient P22 (WDEIA)): Preferably
Substance: 2682 (YKGPTL; REGION 1..6: note = epitope) [compound 2682]

Epitope sequence binding to IgE antibody, rank of the sequence (serum of patient P26 (WDEIA)): Key
Substance: 2684 (YKGPTL; REGION 1..6: note = epitope) [compound 2684]

Epitope sequence binding to IgE antibody, rank of the sequence (serum of patient P27 (WDEIA)): Preferably
Substance: 2685 (YKGPTL; REGION 1..6: note = epitope) [compound 2685]

Epitope sequence binding to IgE antibody, rank of the sequence (serum of patient P29 (WDEIA)): Key
Substance: 2688 (YKGPTL; REGION 1..6: note = epitope) [compound 2688]

Epitope sequence binding to IgE antibody, rank of the sequence (serum of patient P30 (WDEIA)): Key
Substance: 2689 (YKGPTL; REGION 1..6: note = epitope) [compound 2689]

Epitope sequence binding to IgE antibody, rank of the sequence (serum of patient P35 (WDEIA)): Key
Substance: 2694 (YKGPTL; REGION 1..6: note = epitope) [compound 2694]

Epitope sequence binding to IgE antibody, rank of the sequence [2]: Key
Substance: 2698 (KGPTL; REGION 1..5: note = epitope) [compound 2698]

Epitope sequence binding to IgE antibody, rank of the sequence (serum of patient G8 (adult, general immediate type allergy to wheat)): Key
Substance: 2699 (YKGPTL; REGION 1..6: note = epitope) [compound 2699]

Epitope sequence binding to IgE antibody, rank of the sequence (serum of patient G9 (adult, general immediate type allergy to wheat)): Key
Substance: 2700 (YKGPTL; REGION 1..6: note = epitope) [compound 2700]

Epitope sequence binding to IgE antibody, rank of the sequence (serum of patient P3 (WDEIA)): Key
Substance: 2704 (YKIGGI; REGION 1..6: note = epitope) [compound 2704]

Epitope sequence binding to IgE antibody, rank of the sequence (serum of patient P16 (WDEIA)): Key
Substance: 2710 (YKIGG; REGION 1..5: note = epitope) [compound 2710]

Epitope sequence binding to IgE antibody, rank of the sequence (serum of patient P17 (WDEIA)): Preferably
Substance: 2712 (YKIGG; REGION 1..5: note = epitope) [compound 2712]

Epitope sequence binding to IgE antibody, rank of the sequence (serum of patient P17 (WDEIA)): Key
Substance: 2714 (GIGTVPVGRV; REGION 1..10: note = epitope) [compound 2714]

Epitope sequence binding to IgE antibody, rank of the sequence (serum of patient P18 (WDEIA)): Key
Substance: 2718 (GIGTVPVGRV; REGION 1..10: note = epitope) [compound 2718]

Epitope sequence binding to IgE antibody, rank of the sequence (serum of patient P25 (WDEIA)): Key
Substance: 2721 (GIGTVPVG; REGION 1..8: note = epitope) [compound 2721]

Epitope sequence binding to IgE antibody, rank of the sequence (serum of patient P26 (WDEIA)): Key
Substance: 2724 (GIGTVPVGRV; REGION 1..10: note = epitope) [compound 2724]

Epitope sequence binding to IgE antibody, rank of the sequence (serum of patient P27 (WDEIA)): Key
Substance: 2726 (KIGG; REGION 1..4: note = epitope) [compound 2726]

Epitope sequence binding to IgE antibody, rank of the sequence (serum of patient P27 (WDEIA)): Key
Substance: 2727 (GIGTVPVGR; REGION 1..9: note = epitope) [compound 2727]
